{
  "source": "patent EP0506748B1",
  "about": "“AMINO ACIDS, PEPTIDES OR DERIVATIVES THEREOF COUPLED TO FATS” (COMMONWEALTH SCIENTIFIC AND INDUSTRIAL RESEARCH ORGANISATION, priority 1989, dated 1991)",
  "key": {"RD10 cells": {"system": "RD10 cells", "assay": "3H-thymidine incorporation (mitogenic effect) in RD10 cells", "type": "cell-based", "details": "RD10 B-cell lymphoma", "protocol": "(§1) ^3H-thymidine incorporation experiments were carried out in Linbro-Titertek microtitre plates (Flow Laboratories, Inc., U.S.A.) following the method of L. Bradley in \"Selected Methods of Cellular Immunology (1980) Eds. B.B. Mishell and S.M. Shiigi; Publisher. W.H. Freeman and Co., U.S.A. pp156. The tests were carried out externally by Dr. D. Rathjen of Peptide Technology Ltd. Dee Why, N.S.W.\n(§2) Cell lines tested were:- • 1. RD10; a B-cell lymphoma (obtained from the Centre for Immunology, Sydney University, Sydney, NSW. • 2. U937; a human monocyte-like3 histiocytic lymphoma (source: American Tissue Culture Collection).\n(§3) RD10 cells (at a cell density 5x10^s/ml, 100 ul/well) were cultured for 20 hours at 37°C with 5% C02 in RPMI 1640 medium, supplemented with 10% Fetal Calf. Serum. Samples to be tested were mixed and sonicated with this medium at a concentration of 5000, 500, 50 and 5 ug/ml and 100 ul aliquots added to the cells. The cells were pulsed with 0.5 uCi/well of ^3H-thymidine and the plates incubated for four more hours before harvesting (Titertek Skatron harvester, Lier, Norway). Incorporated radioactivity was measured by liquid scintillation counting. All assays were performed in triplicate."}, "U937 cells": {"system": "U937 cells", "assay": "3H-thymidine incorporation (mitogenic effect) in U937 cells", "type": "cell-based, human", "details": "for Thymidine incorporation of the U937 cells: U937 human monocyte-like histiocytic lymphoma, result in words, relative to control or to Z-Ala-TRIS-Tripalmitate", "protocol": "as §1, §2, §3"}, "trypsin": {"target": "T1, trypsin (Bos taurus, UniProt P00760)", "T1 sequence (P00760 24-246)": "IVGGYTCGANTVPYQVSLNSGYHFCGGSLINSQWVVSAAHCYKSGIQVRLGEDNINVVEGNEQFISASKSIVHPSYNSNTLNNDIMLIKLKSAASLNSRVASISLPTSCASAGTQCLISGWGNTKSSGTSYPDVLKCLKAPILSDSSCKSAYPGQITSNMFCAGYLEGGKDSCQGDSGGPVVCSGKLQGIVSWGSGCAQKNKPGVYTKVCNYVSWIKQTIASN", "assay": "Protease treatment: digestion with trypsin, followed by HPLC", "type": "biochemical", "details": "TPCK trypsin, enzyme/substrate ratio 1:50, 0.2 M ammonium hydrogen carbonate, 37°C; product Z-Leu-Arg-OH", "protocol": "Z-Gly-TRIS and Z-Ala-TRIS were incubated with papain, and Z-Leu-Arg-TRIS with trypsin, to test that the action of proteolytic enzymes could regenerate the starting compounds Z-Gly-OH, Z-Ala-OH and Z-Leu-Arg-OH respectively.\n• a) Papain. Z-Ala-TRIS in 50 mmolar phosphate buffer pH 6.5 (650 ul) , 20 mM ethylene-diamine-tetraacetic acid (100 ul) and water to 1 ml. Activated papain (5mg/ml) was added to a final enzyme/substrate ratio of 1:50. The reaction was followed by HPLC on C18 reverse phase columns and the hydrolysis product identified by co-chromatography with standards. Blanks were incubated as above using water instead of enzyme solution. • b) Trypsin. Z-Leu-Arg-TRIS was incubated at a concentration between 2 and 10 mg/ml in 0.2 M ammonium hydrogen carbonate. Freshly prepared TPCK trypsin (1 mg/ml in water) was added to the solution giving a final enzyme/substrate ratio of 1:50. Samples were incubated at 37°C and aliquots examined by reverse phase HPLC. Additional amounts of enzyme were added as required."}},
  "data": [
    {"molecule": "CCCCCCCCCCCCCCCC(=O)OCC(COC(=O)CCCCCCCCCCCCCCC)(COC(=O)CCCCCCCCCCCCCCC)NC(=O)C(C)N", "note": "(stereo not drawn) [Ala-TRIS-Tripalmitate, Ala-TRIS-TRIPALMITATE]", "values": [
      {"measurement": "^3H-thymidine uptake by RD10 cells, response compared with Z-Ala-TRIS-Tripalmitate", "setting": "RD10 cells; result in words", "result": "slightly diminished response"},
      {"measurement": "Thymidine incorporation of the U937 cells", "setting": "U937 cells", "result": "slightly diminished responses"}
    ]},
    {"molecule": "CCCCCCCCCCCCCCCC(=O)OCC(COC(=O)CCCCCCCCCCCCCCC)(COC(=O)CCCCCCCCCCCCCCC)NC(=O)C(C)NC(=O)OCc1ccccc1", "note": "(stereo not drawn) [Z-Ala-TRIS-Tripalmitate, Z-Ala-TRIS-TRIPALMITATE]", "values": [
      {"measurement": "^3H-thymidine uptake by RD10 cells, increase in cell proliferation compared to control", "setting": "RD10 cells; samples at 5000, 500, 50 and 5 ug/ml, 20 hours culture, 4 hours pulse, triplicate", "result": 3.4, "unit": "fold"},
      {"measurement": "Thymidine incorporation of the U937 cells", "setting": "U937 cells", "result": "close to control"},
      {"measurement": "cytotoxic effects in U937 cells", "setting": "U937 cells; at higher concentrations, from thymidine incorporation", "result": "slight cytotoxic effects"}
    ]},
    {"molecule": "CC(C)C[C@H](NC(=O)OCc1ccccc1)C(=O)N[C@@H](CCCNC(=N)N)C(=O)NC(CO)(CO)CO", "note": "[Z-Leu-Arg-TRIS]", "values": [
      {"measurement": "hydrolysis with trypsin", "setting": "trypsin", "result": "slowly"}
    ]}
  ]
}
